{
  "source": "patent US8444858B2",
  "about": "“Control of development of biofilms in industrial process water” (A.Y. Laboratories Ltd., priority 2001, dated 2013)",
  "key": {"biofilm [1]": {"tested_on": "biofilm", "test": "Pilot plant wastewater pipes, difference in Hazen-Williams coefficient treated vs control pipe", "settings": "single 3 h treatment on day 1 at 10 ppm as total chlorine", "description": "Treated wastewater was pumped through several pipes of 10 m length and 4 inches inner diameter in a pilot plant. […] Pressure drop through each pipe was monitored on-line, and average HW coefficients were calculated.\nThe biofilm inhibiting substance in this example was produced as follows, using a small feeding system was built specifically for this trial. […] The concentration of the biofilm inhibiting substance pre-injection solution was ˜3600 ppm and the pH was 9.2-9.6. […]"}, "catalase (Merck)": {"tested_on": "catalase (Merck)", "test": "Inactivation of catalase, residual H2O2 laboratory test", "assay_type": "biochemical", "settings": "for Residual H2O2 concentration, % of 3.5% g/l: catalase 26 units/ml", "description": "Freshly prepared biofilm inhibiting substance was added to the appropriate flasks containing diluted catalase at a pre-defined feed rate. The contents of the containers were mixed for 60 minutes at room temperature prior to addition of H2O2 (to a final H2O2 concentration of 3.5 g/l). After addition of the H2O2, the mixture was allowed to mix for 30 minutes at room temperature, at which point H2O2 residues were measured in each flask in accordance with the Dr. Lange Cuvette Test LCW 058, measured with LASA 20 (based on Jander/Blasius: Lehrbach der Analytischen and Praparative Anorganischen Chemie, as described in the Handbook of Photometrical Operation Analysis (October 1997)).\nSodium hypochlorite was diluted in DI water to a final concentration of 6000 ppm expressed as total chlorine. Ammonium bromide solution (equimolar to 1.1 mole of the diluted sodium hypochlorite solution, 10% excess on a molar basis) and ammonium chloride solution (equimolar to 1.1 mole of the diluted hypochlorite solution, 10% excess on a molar basis) were prepared. The diluted hypochlorite (50 ml) was added dropwise to 50 ml of the appropriate ammonium salt while the pH was constantly measured. The biofilm inhibiting substance concentration in the produced stock solution was immediately measured and the biofilm inhibiting substance at the appropriate feed level was immediately added to the test flasks."}, "[2]": {"tested_on": "mixed culture of slime-forming-bacteria which had been isolated from a paper machine", "test": "Formation of biofilm on stainless steel coupons in a model system (viable counts in medium and on coupons)", "assay_type": "cell-based", "description": "Formation of biofilm on stainless steel coupons in the presence or absence of an oxidizing biocide or a biofilm inhibiting substance was evaluated in the laboratory. The test system consisted of (a) three closed flasks each containing 20 L nutrient-rich medium (diluted three-fold from its recommended use concentration), (b) three closed cells containing stainless steel coupons hanging freely, and (c) three identical circulation pumps, each pump connected via plastic pipes to one of the flasks and to one of the cells. The system was placed in a thermostatic room at 35° C.\nAn innoculum containing a mixed culture of slime-forming-bacteria which had been isolated from a paper machine was added to each of the flasks. An oxidizer containing a 5 ppm mixture (expressed as total Cl2) of bromochlorodimethylhydantoin (an oxidizing biocide which is a source of HOBr and HOCl) (hereinafter “mixed halogens”) was added to the first flask once a day for the duration of the trial (4 days). […] The third flask served as a control for the two flasks treated with the oxidizing biocide or biofilm inhibiting substances. […] A diluted solution of sodium hypochlorite in deionized (DI) water (˜8000 ppm as total chlorine) was fed with one pump; a diluted solution of ammonium bromide (12500 ppm) was fed with the second pump. The two diluted solutions were synchronously mixed in a short glass pipe to form a pre-injection solution of biofilm inhibiting substance, using a pH meter to control and check the stability of the biofilm inhibiting substance formed. The biofilm inhibiting substance was fed to the test system immediately as it was produced.\nOn days 2 and 4, each closed cell was opened and 2 coupons were aseptically removed from each cell. At the same time samples of the circulating medium were taken as well. Sampling was conducted after feeding the daily slug dose of biocide.\nEach sample of medium was serially 10-fold diluted in sterile saline solution and plated in molten agar. Each coupon was thoroughly rinsed to remove any adhered particles, aseptically scraped, and the material removed by scraping was quantitatively dispersed in saline solution, vortexed, serially 10-fold diluted and plated in molten agar. Viable counts of microorganisms were taken after 48 h of incubation at 35° C. Viable counts of cells in the medium are presented as colony forming units (cfu) per ml; viable counts on the coupon surfaces are presented as cfu/cm^2."}, "biofilm [3]": {"tested_on": "biofilm", "test": "Waste water fouling control in a 7 km pipe, Hazen-Williams coefficient", "settings": "NaOCl at a level of up to 50 mg/l (calculated as Cl2)", "description": "Treated wastewater was piped from a wastewater treatment plant to a location 7 kilometers away.\n(The Hazen-Williams coefficient is used to express water flow through industrial pipes. It is calculated using the formula\n[formula] wherein P is the friction pressure drop expressed in pounds per square inch per 1000 feet of pipe length, B is the flow rate in barrels per hour, s is the specific gravity of the liquid, C=a friction factor (the Hazen-Williams coefficient), and d is the internal diameter of the pipe in inches. P and B are measured for a given pipe, s and d are treated as constants, and C is calculated. The results are presented as the Hazen-Williams coefficient.\nWaste water (up to 10 m^3/h) was used to appropriately dilute both chemicals. An on-line pH meter controlled the production process and the hypochlorite feeding rate to ensure the production of a stable biofilm inhibiting substance. The biofilm inhibiting substance was injected into the treated waste pipe as it was produced. Concentration of the biofilm inhibiting substance stock solution was 3000-4000 ppm; the pH was maintained at 9.5-10."}, "[4]": {"test": "De-inking plant field trial, residual H2O2, residual biofilm inhibiting substance and H2O2 consumption", "description": "A de-inking system had been using 7-10 kg H2O2 per ton of waste paper.\nThe reaction pH was Maintained at 9.8-10.0. The Production process was controlled to ensure synchronous metering of the two chemicals, continuous mixing at the predetermined molar ratio and reproducible production of a stable biofilm inhibiting substance stock solution for the duration of the trial and longer. […] After 850 minutes the dosing rate was reduced to 85 g/ton expressed as total Cl2 by feeding the biofilm inhibiting substance semi-continuously. Various parameters were monitored during start-up of the trial: Residual biofilm inhibiting substance was measured (using a Hach pocket colorimeter, total Cl2, based on the DPD method adapted from Standard Methods for Examination of Waste and Waste Water). […] When necessary, samples were diluted with DI water."}},
  "data": [
    {"smiles": "NCl", "note": "[Chloramine, monochloroamine, reference compound]", "values": [
      {"measurement": "HW Diff. treated pipe - Control", "setting": "biofilm [1]; day 1", "result": 13.0},
      {"measurement": "HW Diff. treated pipe - Control", "setting": "biofilm [1]; day 2", "result": 10.8},
      {"measurement": "HW Diff. treated pipe - Control", "setting": "biofilm [1]; day 3", "result": 10.7},
      {"measurement": "HW Diff. treated pipe - Control", "setting": "biofilm [1]; day 4", "result": 15.0},
      {"measurement": "HW Diff. treated pipe - Control", "setting": "biofilm [1]; day 5", "result": 15.2},
      {"measurement": "HW Diff. treated pipe - Control", "setting": "biofilm [1]; day 6", "result": 15.15},
      {"measurement": "HW Diff. treated pipe - Control", "setting": "biofilm [1]; day 7", "result": 14.6},
      {"measurement": "HW Diff. treated pipe - Control", "setting": "biofilm [1]; day 8", "result": 12.9},
      {"measurement": "HW Diff. treated pipe - Control", "setting": "biofilm [1]; day 9", "result": 13.0},
      {"measurement": "HW Diff. treated pipe - Control", "setting": "biofilm [1]; day 10", "result": 11.5},
      {"measurement": "HW Diff. treated pipe - Control", "setting": "biofilm [1]; day 11", "result": 9.5},
      {"measurement": "HW Diff. treated pipe - Control", "setting": "biofilm [1]; day 12", "result": 8.6},
      {"measurement": "HW Diff. treated pipe - Control", "setting": "biofilm [1]; day 13", "result": 7.0},
      {"measurement": "HW Diff. treated pipe - Control", "setting": "biofilm [1]; day 14", "result": 6.2},
      {"measurement": "HW Diff. treated pipe - Control", "setting": "biofilm [1]; day 15", "result": 4.4},
      {"measurement": "HW Diff. treated pipe - Control", "setting": "biofilm [1]; day 16", "result": 2.4},
      {"measurement": "HW Diff. treated pipe - Control", "setting": "biofilm [1]; day 17", "result": 0.8},
      {"measurement": "HW Diff. treated pipe - Control", "setting": "biofilm [1]; day 18", "result": 0.7},
      {"measurement": "oxidation of H2O2 by the substance", "setting": "catalase (Merck)", "result": "do not oxidize H2O2"},
      {"measurement": "Residual H2O2 concentration, % of 3.5% g/l", "setting": "catalase (Merck); BIS 6.7 ppm as total chlorine", "result": "6.8 % of 3.5% g/l"},
      {"measurement": "Residual H2O2 concentration, % of 3.5% g/l", "setting": "catalase (Merck); BIS 58 ppm as total chlorine", "result": "97.1 % of 3.5% g/l"},
      {"measurement": "Residual H2O2 concentration, % of 3.5% g/l", "setting": "catalase (Merck); BIS 128 ppm as total chlorine", "result": "99.4 % of 3.5% g/l"}
    ]},
    {"smiles": "CC1(C)C(=O)N(Cl)C(=O)N1Br", "note": "[Mixed Halogens, bromochlorodimethylhydantoin, reference compound]", "values": [
      {"measurement": "increase in the viable count of biofilm bacteria compared to day 2", "setting": "[2]; coupons after 4 days", "result": 3, "unit": "fold"},
      {"measurement": "reduction in viable count of planktonic microorganisms", "setting": "[2]; medium sample after four days", "result": "~10", "unit": "fold"},
      {"measurement": "Viable Counts After 2 Days, medium", "setting": "[2]; planktonic cells in circulating medium, day 2, daily slug dose (Mixed Halogens 5 ppm, Fuzzicide BAC […] expressed as Cl2), 35° C.", "result": "9 × 10^6 cfu/ml"},
      {"measurement": "Viable Counts After 4 Days, medium", "setting": "[2]; planktonic cells in circulating medium, day 4, daily slug dose (Mixed Halogens 5 ppm, Fuzzicide BAC […] expressed as Cl2)", "result": "1 × 10^6 cfu/ml"},
      {"measurement": "Viable Counts After 2 Days, coupon surfaces", "setting": "[2]; stainless steel coupons, day 2, daily slug dose (Mixed Halogens 5 ppm, Fuzzicide BAC […] expressed as Cl2)", "result": 27, "unit": "cfu/cm^2"},
      {"measurement": "Viable Counts After 4 Days, coupon surfaces", "setting": "[2]; stainless steel coupons, day 4, daily slug dose (Mixed Halogens 5 ppm, Fuzzicide BAC […] expressed as Cl2)", "result": 95, "unit": "Cfu/cm^2"}
    ]},
    {"smiles": "[Na+].[O-]Cl", "note": "[NaOCl, reference compound]", "values": [
      {"measurement": "improving water conductivity in the pipes", "setting": "biofilm [3]", "result": "ineffective"}
    ]},
    {"smiles": "O=CCCCC=O", "note": "[glutaraldehyde, reference compound]", "values": [
      {"measurement": "average H2O2 consumption rate", "setting": "[4]; parallel de-inking system at the same plant, commercial chemical formulation containing glutaraldehyde", "result": "~4 kg H2O2/ton of waste paper"},
      {"measurement": "control of the enzymatic degradation of H2O2", "setting": "[4]; previous attempts on the trial de-inking system", "result": "did not yield cost-effective results"}
    ]}
  ]
}
